Experiment [1] deals with MDA-MB-231 human breast carcinoma cells. The experiment is described as follows: MDA-MB-231 in vitro cellular proliferation inhibition (BrdU). The class given is cell-based. To be noted: for fold less activity than 2-methoxyestradiol: MDA-MB-231 tumor cell line, compared to 2-methoxyestradiol; for antiproliferative activity in MDA-MB-231 cells, in words: breast tumor MDA-MB-231 cells. The protocol:
MDA-MB-231 In Vitro Cellular Proliferation Inhibition
MDA-MB-231 Cells and Culture Conditions
MDA-MB-231 human breast carcinoma cells were grown in DMEM containing 10% FCS (Hyclone Laboratories, Logan Utah) and supplemented with 2 mM L-Glutamine, 100 units/ml penicillin, 100 μg/ml streptomycin (Irvine Scientific, Santa Anna, Calif.).
MDA-MB-231 cells were plated at 5000 cells/ml in 96 well plates. After allowing the cells to attach overnight, the appropriate fresh media were applied containing differing concentrations of 2-ME2 or derivatives thereof, as described below. Drug was dissolved in DMSO (Sigma, St. Louis, Mo.) and added to the wells in a volume of 200 μl. Cells were incubated for two days at 37° C.; at 32 h BrdU was added. BrdU cell proliferation assay (a nucleotide analogue with a fluorescein tag that is incorporated into DNA) was performed as described by the manufacturer (Roche). Each condition was prepared in triplicate and the experiments were carried out a minimum of two times. Results are presented and means ±SE.
(§1) In order to assess the biological activity of modifications at position 16, the anti-proliferative activity of these analogs was evaluated on human umbilical vein endothelial cells (HUVEC) and breast carcinoma cell line, MDA-MB-231 as models for the anti-angiogenic and anti-tumor activity, respectively.

A further experiment concerns HUVEC cells. The experiment can be described thus: HUVEC in vitro cellular proliferation inhibition (BrdU). The class given is cell-based, human. To be noted: for antiproliferative activity in HUVEC cells, in words: inhibition of HUVEC / endothelial cell proliferation in vitro. Here is the method: HUVAC In Vitro Cellular Proliferation Inhibition
HUVAC Cells and Culture Conditions
HUVAC Cells were Grown in EGM (Clonetics)
HUVEC cells were plated at 5000 cells/ml in 96-well plates. After allowing the cells to attach overnight, the cells were washed with PBS and incubated in the absence of growth factor for 24 h (EBM, 2% FCS, Clonetics). Cells were treated with increasing concentrations of drug in EBM containing 2% FCS and 10 ng.ml bFGF for 48 h at 37° C. Drug preparation, volumes added and BrdU proliferation assay were performed as indicated above.
as §1

Experiment [2] concerns estrogen dependant MCF-7 cells. The experiment is described as follows: MCF7 proliferation index (estrogenic activity). The class given is cell-based. The following applies: measure of estrogenic activity. The source says:
All of these analogs have the capacity to from a hydrogen bond with the hydroxy group at position 3 and this may be the reason for their relatively low estrogenic character compared to estradiol. Both the 2-methylhydroxy and 2-formyl derivatives had good antiproliferative activity (IC50<10 microM) in HUVEC cells, whereas the 2-acetyl had poor activity in the same assay.

Experiment [3] relates to chick embryo chorioallantoic membrane. The experiment is described as follows: chick embryo chorioallantoic membrane (CAM) assay. On the set-up: dose or concentration left out as unconfirmed. To be noted: methylcellulose disc on CAM, after 48 hours. The class given is in vivo. The protocol:
Anti-proliferative activity is evaluated in situ by testing the ability of an improved estradiol derivative to inhibit the proliferation of new blood vessel cells (angiogenesis). A suitable assay is the chick embryo chorioallantoic membrane (CAM) assay described by Crum et al. Science 230:1375 (1985). See also, U.S. Pat. No. 5,001,116, hereby incorporated by reference, which describes the CAM assay. Briefly, fertilized chick embryos are removed from their shell on day 3 or 4, and a methylcellulose disc containing the drug is implanted on the chorioallantoic membrane. The embryos are examined 48 hours later and, if a clear avascular zone appears around the methylcellulose disc, the diameter of that zone. is measured.

The mark [4] stands for this setting: Table 2, 2-methoxyestradiol modified at position 16, two days, read-out: MDA-MB-231 IC50.
Setting [5] is: Table 2, 2-methoxyestradiol modified at position 16, 48 h, bFGF, read-out: HUVEC IC50.
The mark [6] stands for this setting: Table 1, 2-modified estradiol derivatives, read-out: MDA-MB-231 (IC50 μM).
[7] abbreviates: Table 1, 2-modified estradiol derivatives, read-out: HUVEC (IC50 μM).
[8] abbreviates: text statement b78, read-out: antiproliferative activity IC50 in HUVEC cells.

Experimental findings from US20060135796A1, “Antiangiogenic agents” (priority 2000, published 2006) are described below.

Where two headings read alike, the source gives them in different places. A value given as a limit tells only on which side of the number the result lay.

Take `COc1cc2c(cc1O)CC[C@@H]1[C@@H]2CC[C@]2(C)[C@@H](O)[C@@H](CN(C)C)C[C@@H]12` [16β-methyl(dimethylamine)-2-methoxyestradiol]: the values for the IC50 (in experiment [1] (setting [4]); with HUVEC cells (setting [5])) were 22 µM and 9 µM, respectively.
`CCC[C@H]1C[C@H]2[C@@H]3CCc4cc(O)c(OC)cc4[C@H]3CC[C@]2(C)[C@H]1O` [n-propyl, 16β-n-propyl-2-methoxyestradiol]: the IC50 (in general, the concentration that gives 50% inhibition) in experiment [1] (setting [4]) was 36 µM; with HUVEC cells (setting [5]), 9 µM.
As for `COc1cc2c(cc1O)CC[C@@H]1[C@@H]2CC[C@]2(C)[C@@H](O)[C@@H](C)C[C@@H]12` [methyl, 16β-methyl-2methoxyestradiol], the “fold less activity than 2-methoxyestradiol” value in experiment [1] is reported as “about 5 fold”. Further, the IC50 was determined as 5 µM in experiment [1] (setting [4]) and 1.3 µM in the experiment on HUVEC cells (setting [5]).
On to `CCCC[C@H]1C[C@H]2[C@@H]3CCc4cc(O)c(OC)cc4[C@H]3CC[C@]2(C)[C@H]1O` [n-butyl, 16β-n-butyl-2-methoxyestradiol], for which the results for the IC50 (in experiment [1] (setting [4]); in the experiment on HUVEC cells (setting [5])) were 39 µM and 9 µM, respectively.
For the compound `CC12CCC3c4cc(C=O)c(O)cc4CCC3C1CCC2O` (stereo not drawn) [Example 2-formyl-E2], the half-maximal inhibitory concentration (IC50) was more than 25 µM in experiment [1] (setting [6]), 8 µM in the experiment on HUVEC cells (setting [7]) and less than 10 µM with HUVEC cells (setting [8]). Moreover, the “antiproliferative activity in MDA-MB-231 cells, in words” value in experiment [1] was “inactive”. Further, the “MCF7 Proliferation Index” value in experiment [2] is listed as 5.4.
As to `CCC[C@@H]1C[C@H]2[C@@H]3CCc4cc(O)c(OC)cc4[C@H]3CC[C@]2(C)[C@H]1O` [n-propyl (—CH2CH2CH3), 16α-n-propyl-2-methoxyestradiol], the IC50 is more than 50 µM in experiment [1] (setting [4]) and 6 µM with HUVEC cells (setting [5]). Besides, the “antiproliferative activity in HUVEC cells, in words” value with HUVEC cells was “good activity”.
For `CC(=O)c1cc2c(cc1O)CC[C@@H]1[C@@H]2CC[C@]2(C)[C@@H](O)CC[C@@H]12` [Example 2-acetyl-E2], the half-inhibitory concentration (IC50) in experiment [1] (setting [6]) worked out at 9 µM; in the experiment with HUVEC cells (setting [7]), 18 µM. Besides, the “antiproliferative activity in MDA-MB-231 cells, in words” value in experiment [1] was “good activity”. The “antiproliferative activity in HUVEC cells, in words” value with HUVEC cells is recorded as “poor activity”. For the same compound, in experiment [2], the “MCF7 Proliferation Index” value was determined as 4.4.
For `C[C@]12CC[C@@H]3c4ccc(O)cc4CC[C@H]3[C@@H]1CC[C@@H]2O` [Example E2, estradiol, reference compound], in experiment [2], the “MCF7 Proliferation Index” value came to 13.1.
In the case of 16β-isobutyl-2-methoxyestradiol, the “fold difference between tumor cell and endothelial cell antiproliferative activity (selectivity)” value in experiment [1] (MDA-MB-231 versus HUVEC) was 5 fold. The IC50 in experiment [1] (setting [4]) is 40 µM; with HUVEC cells (setting [5]) it was 7.5 µM.
As for `CCC1C[C@H]2[C@@H]3CCc4cc(O)c(OC)cc4[C@H]3CC[C@]2(C)[C@H]1O` (mixture of isomers) [ethyl (—CH2CH3), Racemic 16-ethyl-2-methoxyestradiol], the “fold less activity than 2-methoxyestradiol” value in experiment [1] is on record as approximately 3 fold. Moreover, the half-maximal inhibitory concentration (IC50) amounted to 3 µM in experiment [1] (setting [4]) and 2 µM in the experiment on HUVEC cells (setting [5]). Further, in the experiment with HUVEC cells, the “antiproliferative activity in HUVEC cells, in words” value is “about equipotent to 2-methoxyestradiol”.
Consider `COc1cc2c(cc1O)CC[C@@H]1[C@@H]2CC[C@]2(C)[C@@H](O)[C@@H](CO)C[C@@H]12` [methanol (—CH2OH), 16β-methanol-2-methoxyestradiol], for which the results for the IC50 (in experiment [1] (setting [4]); in the experiment with HUVEC cells (setting [5])) were 22 µM and 15 µM, respectively.
In the case of `C[C@]12CC[C@@H]3c4cc(CO)c(O)cc4CC[C@H]3[C@@H]1CC[C@@H]2O` [2-methyl hydroxy-E2], the IC50 was more than 25 µM in experiment [1] (setting [6]), 10 µM in the experiment on HUVEC cells (setting [7]) and less than 10 µM in the experiment with HUVEC cells (setting [8]). In addition, the “antiproliferative activity in MDA-MB-231 cells, in words” value in experiment [1] was “inactive”. The “MCF7 Proliferation Index” value in experiment [2] is reported as 7.4.
On to `COc1cc2c(cc1O)CC[C@@H]1[C@@H]2CC[C@]2(C)[C@@H](O)CC[C@@H]12` [Example 2ME2, 2-Methoxyestradiol, reference compound], for which the IC50 in experiment [1] (setting [6]) and in experiment [1] (setting [4]) was 0.9 µM in each case. Also, in experiment [2], the “MCF7 Proliferation Index” value was determined as 4.4. The “inhibition of cell mitosis and growth of new blood vessels” value in experiment [3] is “inhibit cell mitosis and the growth of new blood vessels”.
With `COc1cc2c(cc1O)CC[C@@H]1[C@@H]2CC[C@]2(C)[C@@H](O)[C@H](C)C[C@@H]12` [methyl (—CH3), 16α-methyl-2methoxyestradiol], the IC50 (in experiment [1] (setting [4]); with HUVEC cells (setting [5])) was less than 0.5 µM in each case. For the same compound, the “antiproliferative activity in MDA-MB-231 cells, in words” value in experiment [1] is reported as “better activity than 2-methoxyestradiol”. For the same compound, the “antiproliferative activity in HUVEC cells, in words” value in the experiment with HUVEC cells was “greater activity than 2-methoxyestradiol”.
